Assay results as given in patent US5663331A, “Cephalosporin compounds” (Il-Dong Pharm. Co., Ltd., priority 1992, dated 1997).
In brackets after ≈: the same amount, converted by molar mass.

What was measured:
Type in all cases: cell-based
[1] = system: Bacillus subtilis ATCC 6633; assay: MIC, two-fold dilution method, Bacillus subtilis ATCC 6633; settings: 10^6 CFU per ml, 37° C., 18 to 20 hours; for Antibacterial Activity (MIC): Muller Hinton Broth; for MIC: ATCC6633, Muller Hinton Broth, read-out: Antibacterial Activity (MIC)
Summary of the method: (§1)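 First, compound is diluted two-fold serially into Mueller Hinton Broth; next, test strain at 10^6 CFU/ml is added; finally, incubation runs 18–20 h at 37° C. before MIC determination.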

[2] = system: Klebsiella pneumoniae ATCC 10031; assay: MIC, two-fold dilution method, Klebsiella pneumoniae ATCC 10031; settings: 10^6 CFU per ml, 37° C., 18 to 20 hours; for Antibacterial Activity (MIC): Muller Hinton Broth; for MIC: ATCC10031, Muller Hinton Broth, read-out: Antibacterial Activity (MIC)
Summary of the method: as §1

[3] = system: Streptococcus faecalis ATCC 10541; assay: MIC, two-fold dilution method, Streptococcus faecalis ATCC 10541; settings: 10^6 CFU per ml, 37° C., 18 to 20 hours; for Antibacterial Activity (MIC): Muller Hinton Broth; for MIC: Enterococcus faecalis, ATCC10541, Muller Hinton Broth, read-out: Antibacterial Activity (MIC)
Summary of the method: as §1

[4] = system: Staphylococcus epidermidis ATCC 12228; assay: MIC, two-fold dilution method, Staphylococcus epidermidis ATCC 12228; settings: 10^6 CFU per ml, 37° C., 18 to 20 hours; for Antibacterial Activity (MIC): Muller Hinton Broth; for MIC: ATCC12228, Muller Hinton Broth, read-out: Antibacterial Activity (MIC)
Summary of the method: as §1

[5] = system: Pseudomonas aeurginosa NCTC 10490; assay: MIC, two-fold dilution method, Pseudomonas aeurginosa NCTC 10490; settings: 10^6 CFU per ml, 37° C., 18 to 20 hours; for Antibacterial Activity (MIC): Muller Hinton Broth; for MIC: NCTC10490, Muller Hinton Broth, read-out: Antibacterial Activity (MIC)
Summary of the method: as §1

[6] = system: Staphylococcus aureus ATCC 65389; assay: MIC, two-fold dilution method, Staphylococcus aureus ATCC 65389; settings: 10^6 CFU per ml, 37° C., 18 to 20 hours; for Antibacterial Activity (MIC): Muller Hinton Broth; for MIC: ATCC65389, Muller Hinton Broth, read-out: Antibacterial Activity (MIC)
Summary of the method: as §1

[7] = system: Esherichia coli ATCC 25922; assay: MIC, two-fold dilution method, Esherichia coli ATCC 25922; settings: Muller Hinton Broth, 10^6 CFU per ml, 37° C., 18 to 20 hours; for MIC: read-out: Antibacterial Activity (MIC)
Summary of the method: as §1

Compound	Antibacterial Activity (MIC) [1] [mg/L]	Antibacterial Activity (MIC) [2] [mg/L]	Antibacterial Activity (MIC) [3] [mg/L]	Antibacterial Activity (MIC) [4] [mg/L]	Antibacterial Activity (MIC) [5] [mg/L]	Antibacterial Activity (MIC) [6] [mg/L]	Antibacterial Activity (MIC) [7] [mg/L]	MIC [1] [mg/L]	MIC [2] [mg/L]	MIC [3] [mg/L]	MIC [4] [mg/L]	MIC [5] [mg/L]	MIC [6] [mg/L]	MIC [7] [mg/L]
C#CCO/N=C(\C(=O)NC1C(=O)N2C(C(=O)[O-])=C(CSc3cc[n+](C4CC4)c4cc(N5CCNCC5C)c(F)cc34)CS[C@H]12)c1csc(N)n1 (some centres unmarked) [Compound I-44, 7-[(Z)-2-(2-aminothiazol-4-yl)-2-(propargyloxyimino)acetamido]-3-[1-cyclopropyl-6-fluoro-7-(2-methylpiperazinyl)quinolinium-4-yl]thiomethyl-3-cephem-4-carboxylate]	0.05	0.78	0.2	0.2	1.56	0.39	1.56							
C#CCO/N=C(\C(=O)NC1C(=O)N2C(C(=O)[O-])=C(CSc3cc[n+](CC)c4cc(N5CCNCC5)c(F)cc34)CS[C@H]12)c1csc(N)n1 (some centres unmarked) [Compound I-45, 7-[(Z)-2-(2-aminothiazol-4-yl)-2-(propargyloxyimino)acetamido]-3-(1-ethyl-6-fluoro-7-piperazinylquinolinium-4-yl)thiomethyl-3-cephem-4-carboxylate]								0.1 (≈ 0.141 µM)	0.78 (≈ 1.1 µM)	0.39 (≈ 0.549 µM)	0.78 (≈ 1.1 µM)	1.56 (≈ 2.19 µM)	0.2 (≈ 0.281 µM)	3.13 (≈ 4.4 µM)
C#CCO/N=C(\C(=O)NC1C(=O)N2C(C(=O)[O-])=C(CSc3cc[n+](CC)c4cc(N5CCN(C)CC5)c(F)cc34)CSC12)c1csc(N)n1 (centres unmarked) [Compound I-46, 7-[(Z)-2-(2-aminothiazol-4-yl)-2-(propargyloxyimino)acetamido]-3-[1-ethyl-6-fluoro-7-(N-methylpiperazinyl)quinolinium-4-yl]thiomethyl-3-cephem-4-carboxylate]								0.78 (≈ 1.08 µM)	6.25 (≈ 8.62 µM)	0.2 (≈ 0.276 µM)	0.39 (≈ 0.538 µM)	6.25 (≈ 8.62 µM)	0.78 (≈ 1.08 µM)	12.5 (≈ 17.2 µM)
C#CCO/N=C(\C(=O)NC1C(=O)N2C(C(=O)[O-])=C(CSc3cc[n+](CC)c4cc(N5CCN(CC)CC5)c(F)cc34)CSC12)c1csc(N)n1 (centres unmarked) [Compound I-47, 7-[(Z)-2-(2-aminothiazol-4-yl)-2-(propargyloxyimino)acetamido]-3-[1-ethyl-6-fluoro-7-(1-ethylpiperazinyl)quinolinium-4-yl]thiomethyl-3-cephem-4-carboxylate]								0.2 (≈ 0.271 µM)	1.56 (≈ 2.11 µM)	0.1 (≈ 0.135 µM)	0.78 (≈ 1.06 µM)	1.56 (≈ 2.11 µM)	0.2 (≈ 0.271 µM)	6.25 (≈ 8.46 µM)
C#CCO/N=C(\C(=O)NC1C(=O)N2C(C(=O)[O-])=C(CSc3cc[n+](CC)c4cc(N5CCNCC5C)c(F)cc34)CS[C@H]12)c1csc(N)n1 (some centres unmarked) [Compound I-48, 7-[(Z)-2-(2-aminothiazol-4-yl)-2-(propargyloxyimino)acetamido]-3-[1-ethyl-6-fluoro-7-(2-methylpiperazinyl)quinolinium-4-yl]thiomethyl-3-cephem-4-carboxylate]	0.1	1.56	0.39	0.78	1.56	0.39	3.13							
C#CCO/N=C(\C(=O)NC1C(=O)N2C(C(=O)[O-])=C(CSc3cc[n+](CC=C)c4cc(N5CCNCC5)c(F)cc34)CS[C@H]12)c1csc(N)n1 (some centres unmarked) [Compound I-49, 7-[(Z)-2-(2-aminothiazol-4-yl)-2-(propargyloxyimino)acetamido]-3-(1-allyl-6-fluoro-7-piperazinylquinolinium-4-yl)thiomethyl-3-cephem-4-carboxylate]								0.39 (≈ 0.54 µM)	1.56 (≈ 2.16 µM)	0.78 (≈ 1.08 µM)	1.56 (≈ 2.16 µM)	1.56 (≈ 2.16 µM)	1.56 (≈ 2.16 µM)	1.56 (≈ 2.16 µM)
C#CCO/N=C(\C(=O)NC1C(=O)N2C(C(=O)[O-])=C(CSc3cc[n+](CC=C)c4cc(N5CCN(C)CC5)c(F)cc34)CSC12)c1csc(N)n1 (centres unmarked) [Compound I-50, 7-[(Z)-2-(2-aminothiazol-4-yl)-2-(propargyloxyimino)acetamido]-3-[1-allyl-6-fluoro-7-(N-methylpiperazinyl)quinolinium-4-yl]thiomethyl-3-cephem-4-carboxylate]								0.78 (≈ 1.06 µM)	3.13 (≈ 4.25 µM)	1.56 (≈ 2.12 µM)	3.13 (≈ 4.25 µM)	3.13 (≈ 4.25 µM)	3.13 (≈ 4.25 µM)	3.13 (≈ 4.25 µM)
C#CCO/N=C(\C(=O)NC1C(=O)N2C(C(=O)[O-])=C(CSc3cc[n+](CC=C)c4cc(N5CCN(CC)CC5)c(F)cc34)CSC12)c1csc(N)n1 (centres unmarked) [Compound I-51, 7-[(Z)-2-(2-aminothiazol-4-yl)-2-(propargyloxyimino)acetamido]-3-[1-allyl-6-fluoro-7-(1-ethylpiperazinyl)quinolinium-4-yl]thiomethyl-3-cephem-4-carboxylate]								0.78 (≈ 1.04 µM)	0.78 (≈ 1.04 µM)	1.56 (≈ 2.08 µM)	1.56 (≈ 2.08 µM)	1.56 (≈ 2.08 µM)	3.13 (≈ 4.17 µM)	0.78 (≈ 1.04 µM)
C#CCO/N=C(\C(=O)NC1C(=O)N2C(C(=O)[O-])=C(CSc3cc[n+](CC=C)c4cc(N5CCNCC5C)c(F)cc34)CS[C@H]12)c1csc(N)n1 (some centres unmarked) [Compound I-52, 7-[(Z)-2-(2-aminothiazol-4-yl)-2-(propargyloxyimino)acetamido]-3-[1-allyl-6-fluoro-7-(2-methylpiperazinyl)quinolinium-4-yl]thiomethyl-3-cephem-4-carboxylate]	0.39	1.56	0.78	1.56	1.56	3.13	0.78							
CN1CCN(c2cc3c(cc2F)c(SCC2=C(C(=O)[O-])N4C(=O)C(NC(=O)/C(=N\OC(C)(C)C(=O)O)c5csc(N)n5)C4SC2)cc[n+]3C)CC1 (centres unmarked) [Compound I-54, 7-[(Z)-2-(2-aminothiazol-4-yl)-2-(2-carboxyprop-2-oxyimino)acetamido]-3-[1-methyl-6-fluoro-7-(N-methylpiperazinyl)quinolinium-4-yl]thiomethyl-3-cephem-4-carboxylate]								0.78 (≈ 1.03 µM)	3.13 (≈ 4.12 µM)	1.56 (≈ 2.06 µM)	3.13 (≈ 4.12 µM)	3.13 (≈ 4.12 µM)	6.25 (≈ 8.24 µM)	6.25 (≈ 8.24 µM)
CCN1CCN(c2cc3c(cc2F)c(SCC2=C(C(=O)[O-])N4C(=O)C(NC(=O)/C(=N\OC(C)(C)C(=O)O)c5csc(N)n5)C4SC2)cc[n+]3C)CC1 (centres unmarked) [Compound I-55, 7-[(Z)-2-(2-aminothiazol-4-yl)-2-(2-carboxyprop-2-oxyimino)acetamido]-3-[1-methyl-6-fluoro-7-(1-ethylpiperazinyl)quinolinium-4-yl]thiomethyl-3-cephem4-carboxylate]								0.2 (≈ 0.259 µM)	0.39 (≈ 0.505 µM)	0.2 (≈ 0.259 µM)	0.78 (≈ 1.01 µM)	0.39 (≈ 0.505 µM)	1.56 (≈ 2.02 µM)	0.78 (≈ 1.01 µM)
CC1CNCCN1c1cc2c(cc1F)c(SCC1=C(C(=O)[O-])N3C(=O)C(NC(=O)/C(=N\OC(C)(C)C(=O)O)c4csc(N)n4)[C@H]3SC1)cc[n+]2C (some centres unmarked) [Compound I-56, 7-[(Z)-2-(2-aminothiazol-4-yl)-2-(2-carboxyprop-2-oxyimino)acetamido]-3-[1-methyl-6-fluoro-7-(2-methylpiperazinyl)quinolinium-4-yl]thiomethyl-3-cephem-4-carboxylate]	0.2	0.39	0.39	0.78	0.78	0.78	0.39							
CC(C)(O/N=C(\C(=O)NC1C(=O)N2C(C(=O)[O-])=C(CSc3cc[n+](C4CC4)c4cc(N5CCNCC5)c(F)cc34)CS[C@H]12)c1csc(N)n1)C(=O)O (some centres unmarked) [Compound I-57, 7-[(Z)-2-(2-aminothiazol-4-yl)-2-(2-carboxyprop-2-oxyimino)acetamido]-3-(1-cyclopropyl-6-fluoro-7-piperazinylquinolinium-4-yl)thiomethyl-3-cephem-4-carboxylate]								0.78 (≈ 1.01 µM)	0.39 (≈ 0.506 µM)	1.56 (≈ 2.02 µM)	6.25 (≈ 8.11 µM)	0.78 (≈ 1.01 µM)	6.25 (≈ 8.11 µM)	0.78 (≈ 1.01 µM)
CCN1CCN(c2cc3c(cc2F)c(SCC2=C(C(=O)[O-])N4C(=O)C(NC(=O)/C(=N\OC(C)(C)C(=O)O)c5csc(N)n5)C4SC2)cc[n+]3C2CC2)CC1 (centres unmarked) [Compound I-59, 7-[(Z)-2-(2-aminothiazol-4-yl)-2-(2-carboxyprop-2-oxyimino)acetamido]-3-[1-cyclopropyl-6-fluoro-7-(1-ethylpiperazinyl)quinolinium-4-yl]thiomethyl-3-cephem-4-carboxylate]								0.39 (≈ 0.488 µM)	0.39 (≈ 0.488 µM)	0.78 (≈ 0.976 µM)	1.56 (≈ 1.95 µM)	0.78 (≈ 0.976 µM)	0.78 (≈ 0.976 µM)	0.78 (≈ 0.976 µM)
